This is an account of results in article PMC12472586, “Leveraging Natural Compounds for Pancreatic Lipase Inhibition via Virtual Screening” (Pharmaceuticals, 2025).

For the assay, the target named is T1, porcine pancreatic lipase (triacylglycerol acyl hydrolase; EC 3.1.1.3) (Sus scrofa, UniProt P00591).
T1 sequence (P00591 1-450): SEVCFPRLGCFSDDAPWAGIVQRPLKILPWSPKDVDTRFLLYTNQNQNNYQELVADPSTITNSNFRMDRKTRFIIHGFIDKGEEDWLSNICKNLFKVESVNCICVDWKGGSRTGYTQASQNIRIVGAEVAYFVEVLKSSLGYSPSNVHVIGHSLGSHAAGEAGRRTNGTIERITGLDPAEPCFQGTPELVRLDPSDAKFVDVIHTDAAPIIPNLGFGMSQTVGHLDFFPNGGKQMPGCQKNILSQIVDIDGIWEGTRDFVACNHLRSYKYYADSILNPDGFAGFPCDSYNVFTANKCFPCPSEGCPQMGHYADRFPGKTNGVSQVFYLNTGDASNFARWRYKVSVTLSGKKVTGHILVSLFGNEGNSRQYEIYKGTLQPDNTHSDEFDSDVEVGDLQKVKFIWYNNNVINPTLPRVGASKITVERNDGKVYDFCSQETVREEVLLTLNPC
Kind of assay: In vitro pancreatic lipase inhibition, 4-nitrophenyl butyrate substrate. The settings on record: means ± SD (n = 3), PBS pH 7.2, 37 °C, OD 405 nm. Format: biochemical. As to the method:
The inhibition of PL was evaluated using a previously reported method.
The inhibition studies of porcine pancreatic lipase (triacylglycerol acyl hydrolase; EC 3.1.1.3) were performed employing 4-nitrophenyl butyrate as a substrate. The compounds were dissolved in MeOH at concentrations from 0.22 mM to 2.7 mM. […] Then, the substrate solution was added (10 μL of 3.2 mM in H2O:DMF, 70:30), and the plate was incubated and shaken for 30 min at 37 °C. The optical density values (OD) were acquired at 405 nm with a Synergy H1 microplate reader (BioTek, Bad Friedrichshall, Germany). The experiments were performed in triplicate, and the %inhibition was determined by the following equation:(1) %inhibition=ODcontrol−ODsample/ODcontrol× 100% where ODcontrol refers to the enzyme–substrate mixture, while ODsample corresponds to the enzyme–substrate mixture in the presence of the inhibitor.
OriginPro 2023 software (OriginLab Corp., Northampton, MA, USA) was adopted for statistical analysis. The regression coefficients were determined based on the analysis of variance (one-way ANOVA, significance level 0.01). A p-value < 0.01 was set as the threshold for significance for Tukey’s test.

Molecules are shown by their SMILES. Where two headings read alike, the source gives them in different places.

For the molecule `C/C(=C\COc1c2ccoc2cc2oc(=O)ccc12)CCC(O)C(C)(C)O` (centres unmarked) [Dihydroxybergamottin], the IC50 (usually the concentration that gives 50% inhibition) (read-out: IC50) amounted to 84.5 ± 1.5 µM.

For `COc1cc([C@H]2c3cc(O)c(OC)cc3C[C@@H](CO)[C@@H]2CO)ccc1O` [Isolariciresinol], the IC50 entry is recorded as “low micromolar range”. Further, the IC50 (read-out: IC50) came out at 12.3 ± 1.2 µM.

As for `Oc1ccc(/C=C/c2cc(O)cc3c2[C@@H](c2cc(O)cc(O)c2)[C@H](c2ccc(O)cc2)O3)cc1` [ε-Viniferin, Ɛ-Viniferin], the IC50 result is “low micromolar range”. For the same molecule, the IC50 (read-out: IC50) came out at 13.2 ± 0.6 µM.
